Series [1] is described as follows: Lipophilicity LogDpH=7.4, shake flask method. The conditions noted are these: PBS (pH = 7.4)/n-octanol, mean of n = 8. The series is classed as physicochemical. The procedure: The LogDpH=7.4 was determined using a modified shake flask method as previously described.
Series [2] addresses T1, human serum albumin (HSA) (Homo sapiens, UniProt P02768).
T1 construct: purchased H13H-2433
The series can be described thus: HSA binding by high performance affinity chromatography (HPAC). It counts as in vitro ADME. As to the method: For the determination of binding to human serum albumin (HSA) using HPLC, a Chiralpak HSA column (50 × 3 mm, 5 μm, H13H-2433) was used at a constant flow rate of 0.5 ml/min. The mobile phase (A: NH4OAc, 50 mM in H2O, pH 6.9 and B: iPrOH) was freshly prepared for each day.

The test system of the next series is AR42J cells. The series can be described thus: Internalization into AR42J cells relative to [125I]TOC. It counts as cell-based. The conditions noted are these: percentage compared to internal reference [125I]TOC. As to the method: AR42J cells (European Collection of Cell Cultures, Salisbury, UK) were grown in RPMI 1640 medium (with 2 mM, L-Glu, 10% FCS; v/v, 37 °C, 5% CO2), harvested 24 ± 2 h and seeded in 24-well poly-L-lysine plates (2.0 × 10^5 cells/well in 1 ml culture medium). After removal of the medium, the cells were washed with assay medium (300 µl, RPMI 1640 with 2 mM L-Glu, 5% BSA; v/v) and incubated in assay medium (200 µl, 15 min, 37 °C, 5% CO2). 25 µl of the ^18F-labeled ligand (20 nM) and [^125I]TOC (1 nM) in assay medium were added followed by either 25 µl TOC in assay medium (100 µM, competition experiment) or 25 µl of assay medium (internalization experiment). Cells were incubated at 37 °C for 15, 30, and 60 min (n = 3 per compound and time point), respectively, and chilled on ice. The supernatant was collected, the well washed with ice-cold RPMI 1640 (300 µl), and the two fractions combined (unbound ligand). The cells were incubated with acid wash solution (300 µl, 0.9% NaCl, 50 mM NaOAc/AcOH buffer, pH = 4.6, 15 min, 4 °C) to remove receptor-bound radioligand. The supernatant was collected, and the cells washed with 300 µl ice-cold acid wash solution (combined fractions: acid releasable, receptor bound ligand). The cells were lysed with NaOH solution (300 µl, 1 M, 15 min, RT), washed with 300 µl of the same solution, the two fractions combined (internalized ligand), and all activities quantified using a γ-counter.

Series [3] is described as follows: Biodistribution 1 h p.i. in AR42J xenograft bearing CD1 nu/nu mice. It counts as in vivo. The conditions noted are these: female, mouse, intravenous, total radioactivity, average ± Stdev. The procedure:
(§1) The 8-week-old female CD1 nu/nu mice were purchased from Charles River (Sulzfeld, Germany). Animal experiments were conducted according to general animal welfare regulations (German animal protection act, as amended on 18.05.2018, Art. 141 G v. 29.3.2017 I 626, approval no. 55.2-1.2-54–2532-71-13 by the General Administration of the Free State of Bavaria; Swiss animal welfare regulations: Animal Welfare Act SR 455, license: Canton de Vaud, 3781 d). To establish tumor xenografts, AR42J cells (5 × 10^6 cells in 100 µl serum-free culture medium) were inoculated subcutaneously onto the shoulder. Mice were used for experiments when tumors had grown to a diameter of 5–9 mm (7–15 days after inoculation).
Approximately 0.5–2.5 MBq (0.05–0.20 nmol) of the ^18F-labeled ligands were injected into the tail vein of AR42J xenograft-bearing mice under isoflurane anesthesia (1.5% alveolar concentration). The mice were sacrificed 1 h post injection (n = 3–5). Organs were removed, weighed, and the activity quantified (γ-counter).
An unpaired Welch’s t-test was applied using the GraphPad Prism software (version 10.1.2). Standard deviations for tumor-to-organ (T/O) ratios were calculated using the rules of error propagation. Thresholds for statistical significance are defined as: p > 0.05 (ns); p ≤ 0.05 (*); p ≤ 0.01 (**); p ≤ 0.001 (***); p ≤ 0.0001 (****).

A further series concerns the target T2, SST2 (AR42J tumor) (Rattus norvegicus, UniProt P30680).
T2 construct: endogenous in cells; host or cells: AR42J xenograft in CD1 nu/nu mice
Nature of the series: µPET/CT imaging with and without octreotide blocking in AR42J tumor bearing mice. The series is classed as in vivo. The conditions noted are these: 60 min p.i. The procedure: as §1
4–5 MBq (0.3–0.5 nmol) of the ^68Ga-labeled SST2-ligand were injected into the tail vein of the xenograft-bearing mice. After 1 h, the mice were anesthetized (isoflurane: 1.5% alveolar concentration) and a PET image acquired (20 min, 32 × 32, 0.5 mm) using an Albira PET/SPECT/CT (Bruker Biospin Corporation, Woodbridge, CT, USA) followed by a CT scan (10 min). For blocking, 20 µg octreotide (0.8 mg/kg) were co-injected with the tracer. The images were reconstructed (Albira reconstructor, version NMI3.3) and analyzed (PMOD, V6.3.4, Bruker).

The nature of series [4]: In-vitro stability in PBS, human serum and mouse liver extract. It counts as in vitro ADME. The conditions noted are these: 1 h, 37 °C, radio RP-HPLC. As to the method: [^natF][^68Ga]rhTATE (ca. 5 MBq) was added to 500 µl samples of mouse liver extract, human serum, or PBS, respectively. The mixtures were incubated at 37 °C for 60 min. Workup of blood and liver extract samples was performed using cartridge purification (StrataX cartridge, 33 μm Polymeric Reversed Phase, 500 mg; preconditioning: 500 µl MeOH, 5 ml H2O; washing: 3 ml H2O; elution: ACN/H2O (0.1% TFA, 1:3, v/v, 300 µl). The resulting eluates were analyzed using radio RP-HPLC (Chromolith^R RP-18e; 100 × 4.6 mm; Merck KGaA; gradient of 10–90% ACN in H2O (0.1% TFA) within 8 min; flow rate: 1 ml/min). For cross-validation of HPLC results, radio RP-TLC was equally performed for all samples (1 M citric acid/NaOH, pH = 5.0; Rf: Product: 0.0–0.2.0.2; ^68Ga: 0.8–1.0.8.0).

Details of series [5]: method as in PMID 10774879. The conditions noted are these: PBS (pH = 7.4)/n-octanol; cited from earlier work.
Setting [6] is: co-injection of 20 µg octreotide (0.8 mg/kg).

Like-named read-outs stand apart in the source and are kept apart here.

T2 sequence (P30680 whole entry): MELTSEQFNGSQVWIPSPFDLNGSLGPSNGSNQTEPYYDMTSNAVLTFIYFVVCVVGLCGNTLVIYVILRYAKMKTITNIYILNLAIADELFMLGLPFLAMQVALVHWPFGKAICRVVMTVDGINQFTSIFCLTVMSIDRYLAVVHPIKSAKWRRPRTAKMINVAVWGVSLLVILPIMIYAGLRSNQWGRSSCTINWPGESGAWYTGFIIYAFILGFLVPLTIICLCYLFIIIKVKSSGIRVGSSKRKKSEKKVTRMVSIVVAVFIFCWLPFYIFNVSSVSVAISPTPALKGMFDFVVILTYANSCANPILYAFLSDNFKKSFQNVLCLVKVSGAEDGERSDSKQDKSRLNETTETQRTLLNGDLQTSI
T1 sequence (P02768 25-609): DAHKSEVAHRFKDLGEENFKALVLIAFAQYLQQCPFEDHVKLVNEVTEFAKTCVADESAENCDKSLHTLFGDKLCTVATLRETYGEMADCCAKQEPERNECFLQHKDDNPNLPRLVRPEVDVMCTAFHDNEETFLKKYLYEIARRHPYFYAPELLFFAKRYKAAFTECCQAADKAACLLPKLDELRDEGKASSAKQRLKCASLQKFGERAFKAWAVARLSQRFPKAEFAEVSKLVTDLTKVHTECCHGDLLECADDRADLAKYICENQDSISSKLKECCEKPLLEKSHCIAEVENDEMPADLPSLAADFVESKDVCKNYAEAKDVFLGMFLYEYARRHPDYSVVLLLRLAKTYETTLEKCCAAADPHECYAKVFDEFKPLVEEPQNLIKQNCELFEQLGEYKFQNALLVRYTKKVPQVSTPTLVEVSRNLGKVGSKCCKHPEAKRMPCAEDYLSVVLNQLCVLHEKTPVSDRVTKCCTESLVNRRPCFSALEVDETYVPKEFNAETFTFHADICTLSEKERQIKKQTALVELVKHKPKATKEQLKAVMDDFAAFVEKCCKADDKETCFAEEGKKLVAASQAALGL

For `C[C@@H](O)[C@H](NC(=O)[C@@H]1CSSC[C@H](NC(=O)[C@@H](Cc2ccccc2)NC(=O)CN2CCN(CC(=O)O)CCN(CC(=O)NCCCC[C@@H](NC(=O)[C@@H](CNC(=O)C[N+](C)(C)Cc3ccc([Si](F)(C(C)(C)C)C(C)(C)C)cc3)NC(=O)[C@@H](CCC(=O)O)NC(=O)[C@@H](CCC(=O)O)NC(=O)[C@H](N)CCC(=O)O)C(=O)O)CCN(CC(=O)O)CC2)C(=O)N[C@@H](Cc2ccc(O)cc2)C(=O)N[C@H](Cc2c[nH]c3ccccc23)C(=O)N[C@@H](CCCCN)C(=O)N[C@@H]([C@@H](C)O)C(=O)N1)C(=O)O` [[^18/natF][^natGa]rhTATE2.5, metal not drawn], the “LogDpH=7.4” value in series [1] is −2.30. In series [2] (affinity to HSA by affinity chromatography (Chiralpak HSA column)), the “HSA HPAC” value is 84.8%. The molecule further gave an Internalization in the series on AR42J cells of 357%. The tissue uptake at 1 h in series [3] (adrenal glands, AR42J tumor-bearing CD1 nu/nu mice, read-out: Biodistribution Adrenal Glands) worked out at 1.52 ± 0.21 %ID/g; in series [3] (blood, AR42J tumor-bearing CD1 nu/nu mice, read-out: Biodistribution Blood), 0.32 ± 0.11 %ID/g; in series [3] (femur, AR42J tumor-bearing CD1 nu/nu mice, read-out: Biodistribution Femur), 1.05 ± 0.3 %ID/g; in series [3] (heart, AR42J tumor-bearing CD1 nu/nu mice, read-out: Biodistribution Heart) it was 0.18 ± 0.05 %ID/g; in series [3] (intestine, AR42J tumor-bearing CD1 nu/nu mice, read-out: Biodistribution Intestine), 1.3 ± 0.25 %ID/g; in series [3] (kidney, AR42J tumor-bearing CD1 nu/nu mice, read-out: Biodistribution Kidney), 12.5 ± 3.5 %ID/g. The tissue uptake at 1 h in series [3] (liver, AR42J tumor-bearing CD1 nu/nu mice, read-out: Biodistribution Liver) is 0.4 ± 0.12 %ID/g; in series [3] (lung, AR42J tumor-bearing CD1 nu/nu mice, read-out: Biodistribution Lung) it was 2.73 ± 0.46 %ID/g; in series [3] (muscle, AR42J tumor-bearing CD1 nu/nu mice, read-out: Biodistribution Muscle), 0.04 ± 0.02 %ID/g; in series [3] (pancreas, AR42J tumor-bearing CD1 nu/nu mice, read-out: Biodistribution Pancreas) it was 11.5 ± 2.32 %ID/g; in series [3] (spleen, AR42J tumor-bearing CD1 nu/nu mice, read-out: Biodistribution Spleen), 0.35 ± 0.07 %ID/g; in series [3] (stomach, AR42J tumor-bearing CD1 nu/nu mice, read-out: Biodistribution Stomach) it was 6.46 ± 1 %ID/g. Also, in series [3] (tumor (AR42J xenograft), AR42J xenograft, CD1 nu/nu mice, read-out: Biodistribution Tumor), the tissue uptake at 1 h turned out to be 18.6 ± 6.18 %ID/g. For the same molecule, the “µPET kidney activity with SST2 blocking” value at SST2 (AR42J tumor) (setting [6]) is reported as “significantly reduced kidney activity”. For the same molecule, the “µPET tumor signal with SST2 blocking” value on SST2 (AR42J tumor) (setting [6]) is listed as “no detectable tumor signal”. In addition, on SST2 (AR42J tumor) (control mouse, 4 MBq, 0.5 nmol tracer/mouse), the “µPET uptake in the tumor and kidneys” value was “intense”. In addition, in series [4], the in vitro stability entry is on record as “stable over 60 min”.

For the molecule `C[C@@H](O)[C@H](NC(=O)[C@@H]1CSSC[C@H](NC(=O)[C@@H](Cc2ccccc2)NC(=O)CN2CCN(CC(=O)O)CCN(CC(=O)O)CCN(CC(=O)O)CC2)C(=O)N[C@@H](Cc2ccc(O)cc2)C(=O)N[C@H](Cc2c[nH]c3ccccc23)C(=O)N[C@@H](CCCCN)C(=O)N[C@@H]([C@@H](C)O)C(=O)N1)C(=O)O` [[^nat/68Ga]DOTA-TATE, metal not drawn, reference compound], in series [2], the “HSA HPAC” value turned out to be 88.9%. For the same molecule, the Internalization with AR42J cells is recorded as 570%. In addition, the “LogDpH=7.4” value in series [5] is −3.69 [24].
